For assay [1], the target named is Adenosine receptor A2a (Rattus norvegicus, UniProt P30543). As to the kind of experiment: Displacement of radioligand from rat adenosine A2A receptor.
For assay [2], the target named is Adenosine receptor A2a (Homo sapiens, UniProt P29274). Kind of assay: Displacement of radioligand from human A2A adenosine receptor expressed in HEK293 cells at 10 uM. The class given is cell-based.
For a further assay, the target named is T1, Adenosine receptor A3 (Mus musculus, UniProt Q61618).
T1 sequence (Q61618 whole entry): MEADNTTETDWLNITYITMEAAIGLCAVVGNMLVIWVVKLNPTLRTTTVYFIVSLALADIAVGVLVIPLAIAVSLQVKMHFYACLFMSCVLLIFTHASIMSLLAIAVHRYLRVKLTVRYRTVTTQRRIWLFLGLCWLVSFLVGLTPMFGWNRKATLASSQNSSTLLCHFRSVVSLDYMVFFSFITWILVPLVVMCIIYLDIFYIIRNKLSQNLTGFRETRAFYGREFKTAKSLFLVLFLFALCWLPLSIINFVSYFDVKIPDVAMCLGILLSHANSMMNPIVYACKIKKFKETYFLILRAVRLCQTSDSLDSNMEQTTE
As to the kind of experiment: Displacement of [125I]N6-(-amino-3-iodobenzyl)adenosine-5'-N-methyl-uronamide from mouse recombinant adenosine A3 receptor expressed in HEK293 cells. It is filed as cell-based.

The next assay has as its target T2, Adenosine receptor A1 (Mus musculus, UniProt Q60612).
T2 sequence (Q60612 whole entry): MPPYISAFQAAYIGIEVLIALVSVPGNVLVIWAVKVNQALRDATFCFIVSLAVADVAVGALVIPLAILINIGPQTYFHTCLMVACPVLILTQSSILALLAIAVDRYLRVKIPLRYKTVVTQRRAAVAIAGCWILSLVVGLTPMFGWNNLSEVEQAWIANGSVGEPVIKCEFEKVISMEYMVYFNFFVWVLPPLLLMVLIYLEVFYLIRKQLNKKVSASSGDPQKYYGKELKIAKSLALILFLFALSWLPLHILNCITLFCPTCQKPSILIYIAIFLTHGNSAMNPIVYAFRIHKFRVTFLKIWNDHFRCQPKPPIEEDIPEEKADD
As to the kind of experiment: Displacement of [125I]N6-(4-amino-3-iodobenzyl)adenosine-5'-N-methyl-uronamide from mouse recombinant adenosine A1 receptor expressed in HEK293 cells. The class given is cell-based.

The target in assay [3] is Adenosine receptor A2a (Mus musculus, UniProt Q60613). Kind of assay: Displacement of [3H]2-[p-(2-carboxyethyl)phenyl-ethylamino]-5'-N-ethylcarboxamidoadenosine from mouse recombinant adenosine A2A receptor expressed in HEK293 cells. The class given is cell-based.
The next assay has as its target T3, Adenosine receptor A2b (Mus musculus, UniProt Q60614).
T3 sequence (Q60614 whole entry): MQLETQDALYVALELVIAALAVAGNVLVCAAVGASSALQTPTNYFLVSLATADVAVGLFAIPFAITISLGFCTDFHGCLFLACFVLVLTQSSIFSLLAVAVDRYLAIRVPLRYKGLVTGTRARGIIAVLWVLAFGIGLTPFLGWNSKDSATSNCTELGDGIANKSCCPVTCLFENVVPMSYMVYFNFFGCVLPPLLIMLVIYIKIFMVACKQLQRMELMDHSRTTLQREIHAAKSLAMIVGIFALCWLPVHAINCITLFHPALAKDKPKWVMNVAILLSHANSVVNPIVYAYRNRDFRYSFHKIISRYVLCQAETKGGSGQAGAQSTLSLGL
Kind of assay: Activation of mouse adenosine A2B receptor.

The structures appear in SMILES notation. Some results are limits rather than exact numbers.

Adenosine receptor A2a (Mus musculus, UniProt Q60613), sequence (Q60613 whole entry): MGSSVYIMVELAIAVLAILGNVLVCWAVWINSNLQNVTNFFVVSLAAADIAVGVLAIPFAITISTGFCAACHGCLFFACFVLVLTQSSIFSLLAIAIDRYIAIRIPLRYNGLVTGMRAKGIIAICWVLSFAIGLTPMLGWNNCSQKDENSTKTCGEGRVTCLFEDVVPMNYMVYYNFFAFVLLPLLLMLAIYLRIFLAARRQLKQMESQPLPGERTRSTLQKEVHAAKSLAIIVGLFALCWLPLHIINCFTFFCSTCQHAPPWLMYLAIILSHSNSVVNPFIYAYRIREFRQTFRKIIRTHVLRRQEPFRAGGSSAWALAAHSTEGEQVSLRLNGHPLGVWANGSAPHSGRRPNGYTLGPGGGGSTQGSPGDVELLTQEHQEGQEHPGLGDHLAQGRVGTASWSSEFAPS
Adenosine receptor A2a (Homo sapiens, UniProt P29274), sequence (P29274 whole entry): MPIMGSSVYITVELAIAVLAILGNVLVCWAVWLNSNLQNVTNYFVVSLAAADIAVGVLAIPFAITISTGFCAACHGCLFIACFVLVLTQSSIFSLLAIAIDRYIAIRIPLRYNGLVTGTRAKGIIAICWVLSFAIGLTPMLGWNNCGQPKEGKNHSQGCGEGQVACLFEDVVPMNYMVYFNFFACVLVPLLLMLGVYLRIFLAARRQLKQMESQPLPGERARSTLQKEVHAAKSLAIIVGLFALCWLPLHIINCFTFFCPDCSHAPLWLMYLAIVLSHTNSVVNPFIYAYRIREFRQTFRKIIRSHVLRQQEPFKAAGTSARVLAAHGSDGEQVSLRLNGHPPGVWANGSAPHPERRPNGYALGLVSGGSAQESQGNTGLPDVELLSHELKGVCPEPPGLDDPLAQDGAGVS
Adenosine receptor A2a (Rattus norvegicus, UniProt P30543), sequence (P30543 whole entry): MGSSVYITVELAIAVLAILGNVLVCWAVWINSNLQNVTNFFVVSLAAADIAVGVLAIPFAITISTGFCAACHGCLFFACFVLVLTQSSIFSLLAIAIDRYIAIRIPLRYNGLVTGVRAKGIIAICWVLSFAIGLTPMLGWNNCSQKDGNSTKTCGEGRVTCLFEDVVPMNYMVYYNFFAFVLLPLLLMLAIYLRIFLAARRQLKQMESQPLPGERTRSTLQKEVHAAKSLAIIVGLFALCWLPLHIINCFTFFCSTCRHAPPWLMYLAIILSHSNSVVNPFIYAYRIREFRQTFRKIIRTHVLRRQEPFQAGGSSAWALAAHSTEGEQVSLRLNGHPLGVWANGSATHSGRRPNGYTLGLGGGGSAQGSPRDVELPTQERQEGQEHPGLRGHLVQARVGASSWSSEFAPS

As to `CNC(=O)[C@@]12C[C@@H]1[C@@H](n1cnc3c(NC)nc(Cl)nc31)[C@H](O)[C@@H]2O`, the Ki was > 10000 nM on Adenosine receptor A2a [1], 49 nM on Adenosine receptor A3 and 55.3 nM at Adenosine receptor A1. This molecule gave an inhibition on Adenosine receptor A2a [2] of 6%.
With `CNC(=O)[C@H]1O[C@@H](n2cnc3c(NCc4cccc(I)c4)nc(Cl)nc32)[C@H](O)[C@@H]1O` [NAMODENOSON], the Ki at Adenosine receptor A2a [3] came to 10000 nM; at Adenosine receptor A1, 35 nM. For the same molecule, on Adenosine receptor A2b, the EC50 is ≥ 10000 nM.
Consider `CNC(=O)[C@H]1O[C@@H](n2cnc3c(NCc4cccc(I)c4)ncnc32)[C@H](O)[C@@H]1O` [IB-MECA], for which the Ki at Adenosine receptor A2a [3] turned out to be 1000 nM; at Adenosine receptor A3 it was 0.087 nM; on Adenosine receptor A1 it was 5.9 nM. Further, at Adenosine receptor A2b, the EC50 was ≥ 10000 nM.
